In article PMC11125126, “Synthesis, Characterisation, and In Vitro Evaluation of Biocompatibility, Antibacterial and Antitumor Activity of Imidazolium Ionic Liquids” (Pharmaceutics, 2024):

How the values were obtained:
HDF cells = assay: Direct cytotoxicity test of IL powders, Alamar blue assay; assay type: cell-based, human; conditions: Homo sapiens, 24 h of incubation
Experimental: (§1) Cytotoxicity studies on IL powders were carried out using human dermal fibroblast (HDF) cells (Sigma-Aldrich) and a human breast cancer cell line (MCF7). In addition, ILs loaded in PVC polymer substrates were tested for their cytocompatibility and adhesion properties on the HDF. HDF cells were cultured in 75 cm^2 cell culture flask in Dulbecco’s Modified Eagle’s Medium (DMEM) supplemented with 20% Foetal Bovine Serum (FBS), 1% non-essential amino acid (NEAA), antibiotic solution (streptomycin 100 µg/mL and penicillin 100 U/mL, Sigma Aldrich) and 2 mM L-glutamine. MCF7 cells were grown in DMEM with 10% FBS and the same antibiotics as mentioned above. The cells were maintained in a culture at 37 °C, with 5% CO2 and 95% humidity to achieve a confluent layer. Control cells were cultured in a complete medium without any compounds in tissue culture plates. Before biological testing, the samples were sterilised using a UV light for 2 h.
(§2) A direct cytotoxicity test was used to assess the in vitro cytotoxicity of IL powders. IL powders with different alkyl chains were dissolved in DMEM media to obtain solutions at various concentrations (0.5–1–5 and 10 µg/mL) to determine the best formulation.
(§3) After 24 h of incubation of IL solutions (200 µL) with seeded cells under specific environmental conditions (T = 37 °C, HR = 95%, CO2 = 5%), cell viability was tested using the Alamar blue assay (AbD Serotec, Milan, Italy) following the manufacturer’s instructions.
(§4) In summary, each well received a 200 µL aliquot of Alamar Blue^TM diluted 1:10 in phenol red-free medium and was incubated for 4 h at 37 °C, 5% CO2. Following this, 100 µL of the solution was transferred to a 96-well plate for colorimetric analysis. Wells with no cells were included to account for any background interference from the redox indicator. Optical density was immediately measured using a spectrophotometer (Victor X3, Perkin Elmer, Waltham, MA, USA) at 560 and 595 nm wavelengths. The results were presented as a percentage of cell viability compared to that of the control (cells grown on tissue culture plates).
(§5) Here, the antitumor activity and cytotoxicity of the synthetised imidazolium-based ionic liquids have been determined for breast cancer cells (MCF-7) and healthy human fibroblast (HDF) cells. […] Table 5 reports the IC50 values in µg/mL and µM to make their comparison with the literature data easy.

MCF7 cancer cells = assay: as above; assay type: cell-based, human; conditions: Homo sapiens, 24 h of incubation
Experimental: as §1, §2, §3, §4, §5

CCCCCCCCCCn1cc[n+](C)c1.F[B-](F)(F)F [C10mimBF4] showed an IC50 (HDF cells; n = 3) of 13.5 µM, an IC50 (HDF cells; n = 3, mean ± SD) of 4.18 ± 0.03 µg/mL and an IC50 (MCF7 cancer cells; n = 3) of 7.39 µg/mL. It also gave an IC50 (MCF7 cancer cells; n = 3, mean ± SD) of 23.8 µM.
